# According to ChEMBL document CHEMBL4831531, “Mangostanin Derivatives as Novel and Orally Active Phosphodiesterase 4 Inhibitors for the Treatment of Idiopathic Pulmonary Fibrosis with Improved Safety” (J Med Chem, 2021):
# The source made the active and inactive calls. The rule behind the calls is not given here.
# How the values were obtained:
# Rattus norvegicus [1] = assay: Anti-idiopathic pulmonary fibrotic activity in bleomycin-induced Sprague-Dawley rat model assessed as inhibition of collagen deposition around trachea and cell hyperplasia at 10 mg/kg, po treated for 28 consecutive days by Hematoxylin and eosin staining based assay relative to control; type: functional
# A549 [2] = assay: Anti-idiopathic pulmonary fibrotic activity in human A549 cells assessed as reduction in TGF-beta-induced fibronectin expression measured after 48 hrs by Western blot analysis; type: functional, cell-based; conditions: dose 10-20 µM
# [3] = target: cAMP and cAMP-inhibited cGMP 3',5'-cyclic phosphodiesterase 10A (Homo sapiens, UniProt Q9Y233); assay: Inhibition of PDE10A2 (449-770) (unknown origin) expressed in Escherichia coli BL21 assessed as using [3H]-cAMP as substrate measured for 15 mins by liquid scintillation counting analysis
# Rattus norvegicus [4] = assay: Anti-idiopathic pulmonary fibrotic activity in bleomycin-induced Sprague-Dawley rat model assessed as reversal of mid-expiratory flow at 10 mg/kg, po treated for 28 consecutive days relative to control; type: functional, organism-based
# [5] = target: 3',5'-cyclic-AMP phosphodiesterase 4D (Homo sapiens, UniProt Q08499); assay: Inhibition of PDE4D2 (86-413) (unknown origin) expressed in Escherichia coli BL21 assessed as using [3H]-cAMP as substrate measured for 15 mins by liquid scintillation counting analysis
# [6] = AUC (0 to t) in Sprague-Dawley rat at 5 mg/kg, po; type: ADME, organism-based; parameters: dose 5 mg/kg; conditions: in vivo
# [7] = Solubility of the compound in deionized water; type: physicochemical
# [8] = AUC (0 to t) in Sprague-Dawley rat at 10 mg/kg, po; type: ADME, organism-based; parameters: dose 10 mg/kg; conditions: in vivo
# [9] = target: cGMP-inhibited 3',5'-cyclic phosphodiesterase 3A (Homo sapiens, UniProt Q14432); assay: Inhibition of PDE3A (679-1087) (unknown origin) expressed in Escherichia coli BL21 assessed as using [3H]-cAMP as substrate measured for 15 mins by liquid scintillation counting analysis
# Rattus norvegicus [10] = assay: Anti-idiopathic pulmonary fibrotic activity in bleomycin-induced Sprague-Dawley rat model assessed as reversal of enhanced pause at 10 mg/kg, po treated for 28 consecutive days relative to control; type: functional, organism-based
# Cytochrome P450 1A2 = target: T1, Cytochrome P450 1A2 (Homo sapiens, UniProt P05177); assay: Inhibition of human hepatic CYP1A2; type: ADME, tissue-based, Liver
# T1 sequence (P05177 whole entry): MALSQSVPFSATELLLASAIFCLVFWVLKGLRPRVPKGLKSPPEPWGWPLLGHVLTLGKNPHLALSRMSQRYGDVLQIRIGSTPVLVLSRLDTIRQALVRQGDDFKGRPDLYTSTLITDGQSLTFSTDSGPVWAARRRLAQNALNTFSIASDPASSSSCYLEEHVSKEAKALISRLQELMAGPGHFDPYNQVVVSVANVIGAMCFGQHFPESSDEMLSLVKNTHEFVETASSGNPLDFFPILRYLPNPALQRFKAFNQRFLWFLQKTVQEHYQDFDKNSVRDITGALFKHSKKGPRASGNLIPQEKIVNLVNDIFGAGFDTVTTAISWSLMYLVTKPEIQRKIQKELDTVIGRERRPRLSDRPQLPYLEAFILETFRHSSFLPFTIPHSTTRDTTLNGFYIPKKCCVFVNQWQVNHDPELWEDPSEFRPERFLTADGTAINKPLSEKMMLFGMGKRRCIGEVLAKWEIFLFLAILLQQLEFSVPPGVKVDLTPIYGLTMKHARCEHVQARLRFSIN
# [11] = Cmax in Sprague-Dawley rat at 10 mg/kg, po; type: ADME, organism-based; parameters: route oral, dose 10 mg/kg; conditions: in vivo
# [12] = Tmax in Sprague-Dawley rat at 10 mg/kg, po; type: ADME, organism-based; conditions: in vivo
# Rattus norvegicus [13] = assay: Anti-idiopathic pulmonary fibrotic activity in bleomycin-induced Sprague-Dawley rat model assessed as reversal of peak expiratory flow at 10 mg/kg, po treated for 28 consecutive days relative to control; type: functional, organism-based
# [14] = target: High affinity cGMP-specific 3',5'-cyclic phosphodiesterase 9A (Homo sapiens, UniProt O76083); assay: Inhibition of PDE9A2 (181-506) (unknown origin) expressed in Escherichia coli BL21 assessed as using […] as substrate measured for 15 mins by liquid scintillation counting analysis
# [15] = target: cGMP-specific 3',5'-cyclic phosphodiesterase (Homo sapiens, UniProt O76074); assay: Inhibition of PDE5A1 (535-860) (unknown origin) expressed in Escherichia coli BL21 assessed as using […] as substrate measured for 15 mins by liquid scintillation counting analysis
# [16] = Toxicity in mouse assessed as change in body weight at 1.5 g/Kg, po; conditions: in vivo, 1500 mg/kg
# [17] = target: Dual specificity calcium/calmodulin-dependent 3',5'-cyclic nucleotide phosphodiesterase 1C (Homo sapiens, UniProt Q14123); assay: Inhibition of PDE1C (147-531) (unknown origin) expressed in Escherichia coli BL21 assessed as using [3H]-cAMP as substrate measured for 15 mins by liquid scintillation counting analysis
# [18] = AUC (0 to infinity) in Sprague-Dawley rat at 5 mg/kg, po; type: ADME, organism-based; parameters: route oral, time infinity, dose 5 mg/kg; conditions: in vivo
# A549 [19] = assay: Anti-idiopathic pulmonary fibrotic activity in human A549 cells assessed as reduction in TGF-beta-induced vimentin expression measured after 48 hrs by Western blot analysis; type: functional, cell-based; conditions: dose 10-20 µM
# [20] = Tmax in Sprague-Dawley rat at 5 mg/kg, po; type: ADME, organism-based; conditions: in vivo
# [21] = Toxicity in dog assessed as emesis at 10 mg/kg, po; type: organism-based, Canis lupus familiaris; conditions: in vivo
# Cytochrome P450 2C9 = Cytochrome P450 2C9 (Homo sapiens, UniProt P11712); assay: Inhibition of human hepatic CYP2C9; type: ADME, tissue-based, Liver
# Rattus norvegicus [22] = assay: Anti-inflammatory activity in bleomycin-induced idiopathic pulmonary fibrotic activity Sprague-Dawley rat model assessed as decrease in NO production in lungs at 10 mg/kg, po treated for 28 consecutive days; type: functional, organism-based
# [23] = target: Voltage-gated inwardly rectifying potassium channel KCNH2 (Homo sapiens, UniProt Q12809); assay: Inhibition of human ERG
# [24] = Cmax in Sprague-Dawley rat at 5 mg/kg, po; type: ADME, organism-based; parameters: route oral, dose 5 mg/kg; conditions: in vivo
# Rattus norvegicus [25] = assay: Anti-idiopathic pulmonary fibrotic activity in bleomycin-induced Sprague-Dawley rat model assessed as prevention of structural damage of lungs at 10 mg/kg, po treated for 28 consecutive days by Hematoxylin and eosin staining based assay relative to control; type: functional, organism-based
# Rattus norvegicus [26] = assay: Anti-idiopathic pulmonary fibrotic activity in bleomycin-induced Sprague-Dawley rat model assessed as reversal of respiratory rate at 10 mg/kg, po treated for 28 consecutive days relative to control; type: functional, organism-based
# [27] = target: High affinity cAMP-specific and IBMX-insensitive 3',5'-cyclic phosphodiesterase 8A (Homo sapiens, UniProt O60658); assay: Inhibition of PDE8A1 (480-828) (unknown origin) expressed in Escherichia coli BL21 assessed as using [3H]-cAMP as substrate measured for 15 mins by liquid scintillation counting analysis
# [28] = Metabolic stability in rat liver microsomes assessed as half life; type: ADME, Microsome
# [29] = target: High affinity 3',5'-cyclic-AMP phosphodiesterase 7A (Homo sapiens, UniProt Q13946); assay: Inhibition of PDE7A1 (130-482) (unknown origin) expressed in Escherichia coli BL21 assessed as using [3H]-cAMP as substrate measured for 15 mins by liquid scintillation counting analysis
# Cytochrome P450 3A4 = Cytochrome P450 3A4 (Homo sapiens, UniProt P08684); assay: Inhibition of human hepatic CYP3A4; type: ADME, tissue-based, Liver
# Cytochrome P450 3A4, sequence (P08684 whole entry): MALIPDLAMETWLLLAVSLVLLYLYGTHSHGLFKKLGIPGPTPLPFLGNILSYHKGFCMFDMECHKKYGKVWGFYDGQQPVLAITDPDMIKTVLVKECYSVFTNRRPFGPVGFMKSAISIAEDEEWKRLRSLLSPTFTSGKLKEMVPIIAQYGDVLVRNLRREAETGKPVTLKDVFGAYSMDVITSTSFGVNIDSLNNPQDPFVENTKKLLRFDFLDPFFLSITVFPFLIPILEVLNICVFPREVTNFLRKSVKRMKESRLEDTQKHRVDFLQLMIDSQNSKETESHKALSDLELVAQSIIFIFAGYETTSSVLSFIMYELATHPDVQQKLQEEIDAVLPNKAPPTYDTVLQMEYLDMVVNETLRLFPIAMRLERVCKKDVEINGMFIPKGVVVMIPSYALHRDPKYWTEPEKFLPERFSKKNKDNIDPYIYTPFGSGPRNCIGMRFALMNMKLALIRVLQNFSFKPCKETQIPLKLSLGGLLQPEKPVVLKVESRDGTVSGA
# Dual specificity calcium/calmodulin-dependent 3',5'-cyclic nucleotide phosphodiesterase 1C, sequence (Q14123 whole entry): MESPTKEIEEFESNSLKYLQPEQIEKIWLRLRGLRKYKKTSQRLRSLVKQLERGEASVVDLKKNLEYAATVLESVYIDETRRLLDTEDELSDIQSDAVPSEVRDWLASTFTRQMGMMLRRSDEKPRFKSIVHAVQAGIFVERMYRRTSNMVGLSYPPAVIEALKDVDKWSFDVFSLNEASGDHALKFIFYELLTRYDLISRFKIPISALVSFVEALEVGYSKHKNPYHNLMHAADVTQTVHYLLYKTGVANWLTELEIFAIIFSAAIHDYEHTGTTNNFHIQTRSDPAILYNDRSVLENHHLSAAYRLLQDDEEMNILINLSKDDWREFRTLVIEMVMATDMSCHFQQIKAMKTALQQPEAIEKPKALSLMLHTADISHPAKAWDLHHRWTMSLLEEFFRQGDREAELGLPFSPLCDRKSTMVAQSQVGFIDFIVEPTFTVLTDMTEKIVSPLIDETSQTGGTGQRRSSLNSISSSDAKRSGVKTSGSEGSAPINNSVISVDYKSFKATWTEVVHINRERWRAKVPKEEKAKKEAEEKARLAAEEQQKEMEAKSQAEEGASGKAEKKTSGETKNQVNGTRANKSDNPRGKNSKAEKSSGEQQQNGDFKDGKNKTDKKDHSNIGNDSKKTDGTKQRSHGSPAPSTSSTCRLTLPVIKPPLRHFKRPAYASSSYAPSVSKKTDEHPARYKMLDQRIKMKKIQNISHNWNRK
# Cytochrome P450 2C9, sequence (P11712 whole entry): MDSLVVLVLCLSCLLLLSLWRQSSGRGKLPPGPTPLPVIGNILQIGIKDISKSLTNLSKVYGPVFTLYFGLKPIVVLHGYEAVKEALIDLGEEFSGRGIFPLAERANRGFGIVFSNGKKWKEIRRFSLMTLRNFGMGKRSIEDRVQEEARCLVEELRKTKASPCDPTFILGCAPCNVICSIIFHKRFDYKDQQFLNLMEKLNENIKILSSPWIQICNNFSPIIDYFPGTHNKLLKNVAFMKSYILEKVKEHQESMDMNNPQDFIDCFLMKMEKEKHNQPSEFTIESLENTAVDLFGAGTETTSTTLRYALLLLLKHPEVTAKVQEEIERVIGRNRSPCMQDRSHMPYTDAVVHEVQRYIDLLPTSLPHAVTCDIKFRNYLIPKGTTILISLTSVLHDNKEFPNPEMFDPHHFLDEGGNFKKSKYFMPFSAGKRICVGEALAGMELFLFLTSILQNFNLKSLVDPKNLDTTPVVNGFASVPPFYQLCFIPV
# High affinity cAMP-specific and IBMX-insensitive 3',5'-cyclic phosphodiesterase 8A, sequence (O60658 whole entry): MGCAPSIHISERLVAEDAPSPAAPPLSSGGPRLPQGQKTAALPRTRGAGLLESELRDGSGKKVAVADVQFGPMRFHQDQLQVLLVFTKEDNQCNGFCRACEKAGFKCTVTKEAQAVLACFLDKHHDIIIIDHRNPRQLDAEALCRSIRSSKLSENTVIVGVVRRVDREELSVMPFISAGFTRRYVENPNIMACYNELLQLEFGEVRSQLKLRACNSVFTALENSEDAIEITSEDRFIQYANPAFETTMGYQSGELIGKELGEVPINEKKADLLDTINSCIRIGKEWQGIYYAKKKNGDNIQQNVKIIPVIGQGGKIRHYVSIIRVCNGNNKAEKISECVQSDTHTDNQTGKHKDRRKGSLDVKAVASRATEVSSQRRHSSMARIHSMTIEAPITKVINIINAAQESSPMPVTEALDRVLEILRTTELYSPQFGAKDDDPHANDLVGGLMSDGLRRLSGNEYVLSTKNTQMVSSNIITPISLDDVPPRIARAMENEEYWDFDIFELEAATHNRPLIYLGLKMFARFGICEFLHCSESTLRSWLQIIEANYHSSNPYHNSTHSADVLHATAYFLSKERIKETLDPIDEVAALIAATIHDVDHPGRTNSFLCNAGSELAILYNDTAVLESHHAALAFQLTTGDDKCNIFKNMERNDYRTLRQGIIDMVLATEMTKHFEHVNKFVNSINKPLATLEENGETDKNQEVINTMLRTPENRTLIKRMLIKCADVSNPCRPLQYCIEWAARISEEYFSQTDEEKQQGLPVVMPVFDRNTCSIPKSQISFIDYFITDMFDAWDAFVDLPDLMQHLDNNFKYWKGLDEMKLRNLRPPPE
# 3',5'-cyclic-AMP phosphodiesterase 4D, sequence (Q08499 whole entry): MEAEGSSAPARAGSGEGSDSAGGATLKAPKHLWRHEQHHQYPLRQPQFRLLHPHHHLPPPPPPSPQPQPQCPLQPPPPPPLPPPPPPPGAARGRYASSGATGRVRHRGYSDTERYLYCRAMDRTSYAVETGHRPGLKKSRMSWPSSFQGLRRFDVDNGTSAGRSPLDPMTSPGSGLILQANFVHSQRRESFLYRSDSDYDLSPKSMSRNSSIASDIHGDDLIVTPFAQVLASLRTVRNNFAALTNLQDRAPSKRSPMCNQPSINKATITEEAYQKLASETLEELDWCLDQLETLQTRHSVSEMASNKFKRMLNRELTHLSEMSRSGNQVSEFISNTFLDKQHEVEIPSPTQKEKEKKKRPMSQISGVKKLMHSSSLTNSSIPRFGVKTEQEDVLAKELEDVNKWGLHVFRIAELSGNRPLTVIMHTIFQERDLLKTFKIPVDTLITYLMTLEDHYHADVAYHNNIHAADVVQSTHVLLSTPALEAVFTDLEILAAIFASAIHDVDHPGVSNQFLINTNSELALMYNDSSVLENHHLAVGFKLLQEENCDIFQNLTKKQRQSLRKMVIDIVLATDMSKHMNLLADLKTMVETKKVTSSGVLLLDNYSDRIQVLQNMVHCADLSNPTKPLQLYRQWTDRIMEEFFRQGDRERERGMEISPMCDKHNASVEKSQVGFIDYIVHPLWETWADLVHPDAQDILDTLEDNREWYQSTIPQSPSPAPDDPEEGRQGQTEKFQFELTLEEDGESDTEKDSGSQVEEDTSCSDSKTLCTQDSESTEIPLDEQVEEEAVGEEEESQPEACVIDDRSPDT
# High affinity 3',5'-cyclic-AMP phosphodiesterase 7A, sequence (Q13946 whole entry): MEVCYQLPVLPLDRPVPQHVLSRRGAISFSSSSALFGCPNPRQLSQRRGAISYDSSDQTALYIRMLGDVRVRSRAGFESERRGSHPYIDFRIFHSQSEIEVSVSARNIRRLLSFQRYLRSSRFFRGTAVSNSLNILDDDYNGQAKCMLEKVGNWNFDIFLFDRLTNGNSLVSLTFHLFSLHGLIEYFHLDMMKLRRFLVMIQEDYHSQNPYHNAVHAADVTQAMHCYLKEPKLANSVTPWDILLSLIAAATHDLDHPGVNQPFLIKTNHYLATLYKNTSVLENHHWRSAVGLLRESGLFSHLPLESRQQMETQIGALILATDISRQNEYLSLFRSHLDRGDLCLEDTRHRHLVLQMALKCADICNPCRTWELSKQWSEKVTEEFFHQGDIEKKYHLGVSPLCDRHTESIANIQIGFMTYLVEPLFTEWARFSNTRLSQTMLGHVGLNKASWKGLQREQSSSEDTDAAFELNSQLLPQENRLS
# Voltage-gated inwardly rectifying potassium channel KCNH2, sequence (Q12809 whole entry): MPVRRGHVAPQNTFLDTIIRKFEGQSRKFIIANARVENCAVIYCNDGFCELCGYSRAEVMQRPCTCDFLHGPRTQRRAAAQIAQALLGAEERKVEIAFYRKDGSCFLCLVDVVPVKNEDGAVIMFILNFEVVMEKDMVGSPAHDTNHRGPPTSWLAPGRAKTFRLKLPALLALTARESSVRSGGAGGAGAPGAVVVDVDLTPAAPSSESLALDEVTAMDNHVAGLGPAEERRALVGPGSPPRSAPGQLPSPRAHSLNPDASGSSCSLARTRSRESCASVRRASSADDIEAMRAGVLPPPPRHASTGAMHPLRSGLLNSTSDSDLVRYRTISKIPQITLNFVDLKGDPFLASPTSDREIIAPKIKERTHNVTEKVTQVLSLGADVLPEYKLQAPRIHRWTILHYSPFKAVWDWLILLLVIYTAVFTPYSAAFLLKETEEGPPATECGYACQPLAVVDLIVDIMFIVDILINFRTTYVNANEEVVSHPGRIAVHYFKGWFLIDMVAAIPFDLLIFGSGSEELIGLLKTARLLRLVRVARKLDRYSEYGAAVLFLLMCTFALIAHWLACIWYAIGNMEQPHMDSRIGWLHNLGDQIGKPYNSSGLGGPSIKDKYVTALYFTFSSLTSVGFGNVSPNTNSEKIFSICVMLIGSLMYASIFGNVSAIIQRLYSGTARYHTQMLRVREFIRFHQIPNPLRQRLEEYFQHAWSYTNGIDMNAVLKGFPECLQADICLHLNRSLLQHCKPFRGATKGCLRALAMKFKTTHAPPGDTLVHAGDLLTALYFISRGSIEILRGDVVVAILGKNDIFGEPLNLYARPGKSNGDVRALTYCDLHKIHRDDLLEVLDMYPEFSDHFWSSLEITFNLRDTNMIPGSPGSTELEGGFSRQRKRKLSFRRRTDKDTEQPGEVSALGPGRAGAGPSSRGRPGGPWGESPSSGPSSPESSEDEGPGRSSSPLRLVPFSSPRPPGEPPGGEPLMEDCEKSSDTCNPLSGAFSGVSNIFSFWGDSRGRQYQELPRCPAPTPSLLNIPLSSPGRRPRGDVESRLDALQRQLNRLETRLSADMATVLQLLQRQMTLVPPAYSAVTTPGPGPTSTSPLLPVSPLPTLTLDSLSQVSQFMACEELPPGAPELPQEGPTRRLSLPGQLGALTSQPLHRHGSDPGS
compound,measurement,setting,value
COc1c(OCc2ccc(F)cc2)cc2oc3cc4c(c(OC/C=C/C(=O)O)c3c(=O)c2c1CC=C(C)C)C=CC(C)(C)O4,inhibition in vivo at 10 mg/kg,Rattus norvegicus [1],100%
same,Activity,A549 [2],Dose-Dependent Effect
same,IC50,[3],260 nM
same,Activity,Rattus norvegicus [4],Active
same,IC50,[5],15 nM
same,AUC(0-t),[6],8420 ng·h/mL
same,solubility,[7],1.1 µg/mL
same,AUC(0-t),[8],2090 ng·h/mL
same,IC50,[9],> 10000 nM
same,Activity,Rattus norvegicus [10],Active
same,IC50,Cytochrome P450 1A2,> 25000 nM
same,Cmax,[11],1070 ng/mL
same,Tmax,[12],1 h
same,Activity,Rattus norvegicus [13],Active
same,IC50,[14],> 10000 nM
same,IC50,[15],93 nM
same,Activity,[16],Non-Toxic
same,IC50,[17],440 nM
same,AUC(0-inf),[18],8460 ng·h/mL
same,Activity,A549 [19],Dose-Dependent Effect
same,Tmax,[20],1 h
same,Activity,[21],Non-Toxic
same,IC50,Cytochrome P450 2C9,1700 nM
same,Activity,Rattus norvegicus [22],Active
same,IC50,[23],> 40000 nM
same,Cmax,[24],3850 ng/mL
same,Activity,Rattus norvegicus [25],Active
same,Activity,Rattus norvegicus [26],Active
same,IC50,[27],710 nM
same,half-life,[28],12.2 h
same,IC50,[29],298 nM
same,IC50,Cytochrome P450 3A4,> 25000 nM
